According to US20250099420A1, “SMALL MOLECULE MODULATORS OF GPR139 COMPLEX” (University of Florida Research Foundation, Incorporated, priority 2022, published 2025):
pEC50: −log10 of the molar value. Where two headings read alike, the source gives them in different places.

Assays:
[1] = target: T1, GPR139 (Homo sapiens, UniProt Q6DWJ6); experiment: GPR139 Agonist titration / agonist counterscreen assay (calcium detection, HEK-GPR139 cells); format: cell-based; parameters: expressed in transfected cells; host or cells: HEK Aequorin cells, Maxcyte transient transfection; details: GPR139 Agonist Activity; for pEC50: read-out: EC50; for Averaged Max % Response (±St. Dev.): activity relative to known control
T1 sequence (Q6DWJ6 1-353): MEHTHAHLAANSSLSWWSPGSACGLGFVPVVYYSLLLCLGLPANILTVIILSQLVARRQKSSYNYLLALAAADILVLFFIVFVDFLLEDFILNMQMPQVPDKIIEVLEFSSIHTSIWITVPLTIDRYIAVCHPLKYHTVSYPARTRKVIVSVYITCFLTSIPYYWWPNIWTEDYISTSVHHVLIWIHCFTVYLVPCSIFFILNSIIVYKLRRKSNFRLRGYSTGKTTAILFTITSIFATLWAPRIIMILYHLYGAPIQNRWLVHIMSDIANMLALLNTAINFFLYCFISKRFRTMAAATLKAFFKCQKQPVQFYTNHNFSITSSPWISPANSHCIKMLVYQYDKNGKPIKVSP
Method: GPR activity was assessed using a calcium detection assay. […] Negative control samples were treated with DMSO. […] Intracellular calcium was measured using Calcium 5.

[2] = test system: parental HEK cells; experiment: HEK parental Agonist Counterscreen Assay (non-transfected cells); format: cell-based; details: for Averaged Max % Response (±St. Dev.): activity relative to known control
Text: The high control for the agonist counterscreen was Forskolin not acetylcholine.

[3] = Homo sapiens, HEK293, HEK Agonist Activity section of Table 4 (parental HEK counterscreen)
[4] = values printed in E-notation without unit
[5] = HEK Agonist Activity section of Table 4 (parental HEK counterscreen)

| SMILES | Efficiency Ligand [1] | Hill Slope [1] | Lipophilic Efficiency (logD) [1] | Lipophilic Efficiency (logP) [1] | pEC50 ([1]; HEK-GPR139 cells) | Averaged Max % Response (±St. Dev.) [1] [%] | Lipophilic Efficiency (logD) ([2]; HEK Agonist Activity section) | Lipophilic Efficiency (logP) ([2]; HEK Agonist Activity section) | Lipophilic Efficiency (logD) ([1]; based on logD) | Lipophilic Efficiency (logP) ([1]; based on logP) | Hill Slope ([1]; fitted dose-response curve) | Efficiency Ligand ([1]; ligand efficiency) | pEC50 [1, 4] | Lipophilic Efficiency (logD) ([2]; HEK Agonist Activity) | Lipophilic Efficiency (logP) ([2]; HEK Agonist Activity) | Averaged Max % Response (±St. Dev.) ([2]; HEK Agonist Activity section) [%] | pEC50 [2, 3] | pEC50 [2, 5] | Averaged Max % Response (±St. Dev.) ([2]; HEK Agonist Activity) [%] | pEC50 ([2]; Homo sapiens, HEK293, HEK Agonist Activity, parental non-transfected HEK cells) |
| --- | --- | --- | --- | --- | --- | --- | --- | --- | --- | --- | --- | --- | --- | --- | --- | --- | --- | --- | --- | --- |
| CN(C)C(CNC(=O)Nc1ccc(Cl)c(Cl)c1)c1cccnc1 (stereo not drawn) [SR-01000127953] | – | – | – | – | – | 96.92 ± 13.57 | 2.35 | 1.96 | 4.13 | 3.73 | 0.56 | 0.40 | 6.63 | – | – | 10.89 ± 5.56 | < 4.85 | – | – | – |
| Cc1ccccc1-c1nc(C[S+]([O-])CC(=O)NC(C)CCc2ccccc2)c(C)o1 (stereo not drawn) [SR-01000129545] | 0.30 | 0.47 | 2.69 | 2.68 | 6.44 | 92.13 ± 1.72 | 1.11 | 1.09 | – | – | – | – | – | – | – | 32.45 ± 12.40 | – | < 4.85 | – | – |
| CC(CCc1ccccc1)NC(=O)c1ccc2c(c1)C(Cc1ccccc1)C(=O)C[S+]2[O-] (stereo not drawn) [SR-01000129880] | – | – | – | – | – | 114.68 ± 22.09 | 1.22 | 1.21 | 3.62 | 3.61 | 0.44 | 0.32 | 7.25 | – | – | 0.02 ± 5.29 | < 4.85 | – | – | – |
| CCCCN(C)C(=O)CCC(=O)NNC1Cc2ccccc2C2=CC(C)=CC21 (stereo not drawn) [SR-01000131962] | – | – | – | – | – | 113.53 ± 12.66 | 2.37 | 2.37 | 4.28 | 4.28 | 1.14 | 0.34 | – | – | – | −5.39 ± 5.10 | < 4.85 | – | – | – |
| O=C(Cn1nc(Cc2ccncc2)c2ccccc2c1=O)NC(O)CCc1ccccc1 (stereo not drawn) [SR-01000134029] | – | – | – | – | – | 100.82 ± 13.50 | – | – | 4.27 | 4.27 | – | 0.34 | – | 1.41 | 1.41 | – | – | – | 19.31 ± 4.61 | < 4.85 |
| C=C(CC1N=CC2=C1c1ccccc1CC2)NCc1ccc(C)cc1 (stereo not drawn) [SR-01000134947] | – | – | – | – | – | 111.20 ± 10.15 | 2.07 | 2.07 | 4.02 | 4.02 | 0.36 | 0.38 | – | – | – | 1.42 ± 10.91 | < 4.85 | – | – | – |
| CCCc1ccccc1C1=CCC(NC(=O)Cn2ncc3c2-c2ccccc2CC3)=C1 [SR-01000135037] | – | – | – | – | – | 95.23 ± 13.49 | 1.70 | 1.69 | 3.95 | 3.94 | 1.23 | 0.32 | – | – | – | −6.83 ± 12.52 | < 4.85 | – | – | – |

Second part, led by results:

| Efficiency Ligand [1] | Hill Slope [1] | Lipophilic Efficiency (logD) [1] | Lipophilic Efficiency (logP) [1] | pEC50 ([1]; HEK-GPR139 cells) | Averaged Max % Response (±St. Dev.) [1] [%] | Lipophilic Efficiency (logD) ([2]; HEK Agonist Activity section) | Lipophilic Efficiency (logP) ([2]; HEK Agonist Activity section) | Lipophilic Efficiency (logD) ([1]; based on logD) | Lipophilic Efficiency (logP) ([1]; based on logP) | Hill Slope ([1]; fitted dose-response curve) | Efficiency Ligand ([1]; ligand efficiency) | pEC50 [1, 4] | Lipophilic Efficiency (logD) ([2]; HEK Agonist Activity) | Lipophilic Efficiency (logP) ([2]; HEK Agonist Activity) | SMILES | Averaged Max % Response (±St. Dev.) ([2]; HEK Agonist Activity section) [%] | pEC50 [2, 3] | pEC50 [2, 5] | Averaged Max % Response (±St. Dev.) ([2]; HEK Agonist Activity) [%] | pEC50 ([2]; Homo sapiens, HEK293, HEK Agonist Activity, parental non-transfected HEK cells) |
| --- | --- | --- | --- | --- | --- | --- | --- | --- | --- | --- | --- | --- | --- | --- | --- | --- | --- | --- | --- | --- |
| 0.29 | 1.58 | 3.90 | 3.90 | 6.00 | 78.64 ± 16.53 | 2.75 | 2.75 | – | – | – | – | – | – | – | O=C(C1CC1)N1CCc2cc(S(=O)(=O)NCC3COc4ccccc4O3)ccc21 (stereo not drawn) [SR-01000126429] | 25.18 ± 6.22 | < 4.85 | – | – | – |
| – | – | – | – | – | 98.04 ± 26.06 | 1.95 | 1.95 | 3.96 | 3.96 | 1.01 | 0.32 | 6.86 | – | – | CC(NC(=O)c1ccc2c(c1)N(Cc1ccccc1)C(=O)C[S+]2[O-])c1ccccc1 (stereo not drawn) [SR-01000129845] | 8.19 ± 5.50 | – | < 4.85 | – | – |
| 0.31 | 0.51 | 2.73 | 2.73 | 6.06 | 96.78 ± 14.90 | 1.52 | 1.52 | – | – | – | – | – | – | – | CC(CCc1ccccc1)NC(=O)Cn1ncc2c1-c1ccccc1OC2 (stereo not drawn) [SR-01000134913] | −5.82 ± 11.13 | < 4.85 | – | – | – |
| – | – | – | – | – | 109.36 ± 34.06 | 2.40 | 2.40 | 4.30 | 4.30 | 0.39 | 0.39 | – | – | – | O=C(Cc1ccccc1)CC1C=CC2=C1c1ccccc1CC2 (stereo not drawn) [SR-01000134941] | 10.65 ± 6.79 | < 4.85 | – | – | – |
| – | – | – | – | – | 105.92 ± 4.10 | 2.87 | 2.87 | 5.32 | 5.31 | 0.77 | 0.43 | 7.30 | – | – | Cc1cccc(NC(=O)Cn2ncc3c2-c2ccccc2OC3)n1 [SR-01000135038] | 13.01 ± 4.86 | < 4.85 | – | – | – |
| 0.37 | 0.33 | 3.32 | 3.32 | 6.40 | 104.44 ± 8.42 | 1.77 | 1.77 | – | – | – | – | – | – | – | O=C(Cn1nnc2c1-c1ccccc1OC2)Nc1cccc(Cl)c1 [SR-01000135042] | 16.89 ± 7.08 | < 4.85 | – | – | – |
| – | – | – | – | – | 109.25 ± 4.64 | 3.00 | 3.00 | 4.72 | 4.72 | 1.29 | 0.40 | 6.58 | – | – | O=C(Cn1ncc2c1-c1ccccc1OC2)Nc1ccccn1 [SR-01000135048] | 12.06 ± 16.35 | < 4.85 | – | – | – |
| – | – | – | – | – | 114.56 ± 16.65 | 1.72 | 1.72 | 4.08 | 4.08 | 0.14 | 0.40 | 7.21 | – | – | Cc1ccc(NC(=O)Cn2ncc3c2-c2ccccc2OC3)cc1F [SR-01000135068] | −6.35 ± 1.52 | < 4.85 | – | – | – |
